From ChEMBL document CHEMBL1201862, “PubChem BioAssay data set” (2004)
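Interpolation was linear, between the two tested concentrations surrounding the appropriate level; five concentrations were tested over 48 hours in 96-well plates. GI50: concentration for 50% inhibition of growth.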 Calls of active or inactive are those of the source. Cut-off read from the data, not from the text of the source: active = GI50 up to about 1.1 µM and inactive = higher.

Key:
Assay in all cases: inhibition of tumour cell growth, NCI panel, 48 h
786-0 = tested on: 786-0
A549 = tested on: A549
ACHN = tested on: ACHN
CAKI-1 = tested on: CAKI-1
DLD-1 = tested on: DLD-1
HCT-15 = tested on: HCT-15
HT-29 = tested on: HT-29
KM12 = tested on: KM12
MOLT-4 = tested on: MOLT-4
NCI/ADR-RES = tested on: NCI/ADR-RES
OVCAR-3 = tested on: OVCAR-3
OVCAR-5 = tested on: OVCAR-5
SF-295 = tested on: SF-295
SK-MEL-5 = tested on: SK-MEL-5
SNB-19 = tested on: SNB-19
SNB-75 = tested on: SNB-75
TK-10 = tested on: TK-10
U-251 = tested on: U-251
UACC-257 = tested on: UACC-257
UACC-62 = tested on: UACC-62

## COc1cc2c(c(OC)c1OC)C(=O)NCCC2
786-0
  GI50: > 100 µM (inactive)
A549
  GI50: > 100 µM (inactive)
ACHN
  GI50: > 100 µM (inactive)
CAKI-1
  GI50: > 100 µM (inactive)
DLD-1
  GI50: > 100 µM (inactive)
HCT-15
  GI50: > 100 µM
HT-29
  GI50: > 100 µM (inactive)
KM12
  GI50: > 100 µM (inactive)
MOLT-4
  GI50: > 100 µM (inactive)
NCI/ADR-RES
  GI50: > 100 µM (inactive)
OVCAR-3
  GI50: > 100 µM (inactive)
OVCAR-5
  GI50: > 100 µM (inactive)
SF-295
  GI50: > 100 µM (inactive)
SK-MEL-5
  GI50: > 100 µM (inactive)
SNB-19
  GI50: > 100 µM (inactive)
SNB-75
  GI50: 69.7 µM (inactive)
TK-10
  GI50: > 100 µM (inactive)
U-251
  GI50: > 100 µM (inactive)
UACC-257
  GI50: > 100 µM (inactive)
UACC-62
  GI50: > 100 µM (inactive)
